In data set [1] the test system is C. glabrata 2586. Briefly: FICI checkerboard, β-aescin with antifungal drugs. The data set is classed as cell-based, Candida glabrata. To be noted: combination with β-aescin.
For data set [2], the system named is C. glabrata ATCC 90030. Briefly: Interaction of AABs (3 µM) with antifungal agents, modified checkerboard. The data set is classed as cell-based, Candida glabrata. To be noted: for Multiplicity factor (MF) with C9: C9 3 µM, |MF| = MIC90 alone/MIC90 with AAB; for MIC90 of antimycotic combined with C9: C9 at constant 3 µM; for MIC90 of antimycotic combined with C9 / MIC90 of antimycotic combined with C11 / MIC90 of antimycotic combined with C13 / MIC90 of antimycotic combined with C15: dilutions in µg/mL; for Multiplicity factor (MF) with C11: C11 3 µM; for MIC90 of antimycotic combined with C11: C11 at constant 3 µM; for Multiplicity factor (MF) with C13: C13 3 µM; for MIC90 of antimycotic combined with C13: C13 at constant 3 µM; for Multiplicity factor (MF) with C15: C15 3 µM; for MIC90 of antimycotic combined with C15: C15 at constant 3 µM.

The test system of data set [3] is C. glabrata strains (ATCC 90030, 2586, 2853). Briefly: Interaction of AABs with antifungal agents, statements for all tested strains together. In kind it is cell-based, Candida glabrata. The settings on record: all of the tested C. glabrata strains; AABs 3 µM.
In data set [4] the test system is C. glabrata 2586. Put plainly: Interaction of AABs (3 µM) with antifungal agents, modified checkerboard. The data set is classed as cell-based, Candida glabrata. The settings on record: for Multiplicity factor (MF) with C9: C9 3 µM; for MIC90 of antimycotic combined with C9: C9 at constant 3 µM; for MIC90 of antimycotic combined with C9 / MIC90 of antimycotic combined with C11 / MIC90 of antimycotic combined with C13 / MIC90 of antimycotic combined with C15: dilutions in µg/mL; for Multiplicity factor (MF) with C11: C11 3 µM; for MIC90 of antimycotic combined with C11: C11 at constant 3 µM; for MIC90 of antimycotic combined with C13: C13 at constant 3 µM; for Multiplicity factor (MF) with C15: C15 3 µM; for MIC90 of antimycotic combined with C15: C15 at constant 3 µM.

Data set [5] relates to C. glabrata 2586 clinical strain. Put plainly: MIC90/MFC, EUCAST broth microdilution. To be noted: Nakaseomyces glabratus; for MFC: read-out: MFC; for MIC90: read-out: MIC90. The data set is classed as cell-based, Candida glabrata. In general terms: Broth dilution looks for growth in wells or tubes with falling amounts of substance.
Data set [6] relates to C. glabrata 2853. Put plainly: Interaction of AABs (3 µM) with antifungal agents, modified checkerboard. The data set is classed as cell-based, Candida glabrata. To be noted: for Multiplicity factor (MF) with C9: C9 3 µM; for MIC90 of antimycotic combined with C9: C9 at constant 3 µM; for MIC90 of antimycotic combined with C9 / MIC90 of antimycotic combined with C11 / MIC90 of antimycotic combined with C13 / MIC90 of antimycotic combined with C15: dilutions in µg/mL; for Multiplicity factor (MF) with C11: C11 3 µM; for MIC90 of antimycotic combined with C11: C11 at constant 3 µM; for Multiplicity factor (MF) with C13: C13 3 µM; for MIC90 of antimycotic combined with C13: C13 at constant 3 µM; for Multiplicity factor (MF) with C15: C15 3 µM; for MIC90 of antimycotic combined with C15: C15 at constant 3 µM.

Data set [7] deals with C. glabrata 2853 clinical strain. Put plainly: MIC90/MFC, EUCAST broth microdilution. The data set is classed as cell-based, Candida glabrata. To be noted: Nakaseomyces glabratus; for MFC: read-out: MFC; for MIC90: read-out: MIC90.
Data set [8] concerns biofilms of C. glabrata DSM 1226 and two clinical isolates. More on the design: method as in PMID 37508306. To be noted: combination with β-AE; biofilms of three strains; ref [12]; cited from earlier work.
Data set [9] deals with C. glabrata ATCC 90030. Briefly: MIC90/MFC, EUCAST broth microdilution. The data set is classed as cell-based, Candida glabrata. The settings on record: Nakaseomyces glabratus, ATCC90030, ATCC 90030; for MFC: read-out: MFC; for MIC90: read-out: MIC90.
In data set [10] the test system is C. glabrata ATCC 90030. Briefly: FICI checkerboard, β-aescin with antifungal drugs. The settings on record: combination with β-aescin. In kind it is cell-based, Candida glabrata.
Data set [11] has as its system C. glabrata 2853. Put plainly: FICI checkerboard, β-aescin with antifungal drugs. In kind it is cell-based, Candida glabrata. To be noted: for FICI: combination with β-aescin.
Data set [12] concerns C. glabrata ATCC 90030 and 24 clinical isolates. More on the design: method as in PMID 26092104. To be noted: ref [8], cited from earlier work.
Another data set concerns C. albicans. The arrangement: method as in doi:10.1016/j.carbpol.2003.10.001. To be noted: C. albicans among organisms tested; ref [35]; cited from earlier work.
Details of data set [13]: method as in doi:10.1007/BF02673395. To be noted: ref [48]; cited from earlier work.

≈ marks a conversion by molar mass, not a printed value. Read-outs that look alike come from different tables or passages of the source.

Here are results for five compounds from publication PMC10932281, “A Combination of β-Aescin and Newly Synthesized Alkylamidobetaines as Modern Components Eradicating the Biofilms of Multidrug-Resistant Clinical Strains of Candida glabrata” (International Journal of Molecular Sciences, 2024).

As usually defined, the MFC is the smallest concentration meeting the test's criterion for killing the fungus. The term MIC90 denotes an inhibitory concentration at the 90% level, which refers to growth in some studies and to a panel of isolates in others.

As for `CCC(C)n1ncn(-c2ccc(N3CCN(c4ccc(OCC5COC(Cn6cncn6)(c6ccc(Cl)cc6Cl)O5)cc4)CC3)cc2)c1=O` (centres unmarked) [Itraconazole], in the data set with C. glabrata 2586 [1], the FICI is recorded as 1.004. In the data set on C. glabrata ATCC 90030 [2], the “Multiplicity factor (MF) with C9” value is 1, the “MIC90 of antimycotic combined with C9” value was 4096, the “Multiplicity factor (MF) with C11” value was 1 and the “MIC90 of antimycotic combined with C11” value is listed as 4096. For the same compound, in the data set on C. glabrata ATCC 90030 [2], the “Multiplicity factor (MF) with C13” value is on record as 1, the “MIC90 of antimycotic combined with C13” value is on record as 4096, the “Multiplicity factor (MF) with C15” value came out at 1 and the “MIC90 of antimycotic combined with C15” value worked out at 4096. Further, the “MF with AABs” value in [3] was 1. In the data set on C. glabrata 2586 [4], the “Multiplicity factor (MF) with C9” value is given as 1, the “MIC90 of antimycotic combined with C9” value worked out at 4096, the “Multiplicity factor (MF) with C11” value is listed as 1 and the “MIC90 of antimycotic combined with C11” value is recorded as 4096. In the data set with C. glabrata 2586 [4], the “MIC90 of antimycotic combined with C13” value came out at 4096, the “Multiplicity factor (MF) with C15” value is 1 and the “MIC90 of antimycotic combined with C15” value amounted to 4096. In addition, in the data set on C. glabrata 2586 [4] (C13 3 µM), the “Multiplicity factor (MF) with C13” value is recorded as 1. In addition, in [5], the MFC came out at 4100 µg/mL (≈ 5.8 mM) and the MIC90 is 4100 µg/mL (≈ 5.8 mM). Moreover, in the data set on C. glabrata 2853 [6], the “Multiplicity factor (MF) with C9” value turned out to be 1, the “MIC90 of antimycotic combined with C9” value came out at 4096, the “Multiplicity factor (MF) with C11” value was 1 and the “MIC90 of antimycotic combined with C11” value was 4096. Moreover, in the data set on C. glabrata 2853 [6], the “Multiplicity factor (MF) with C13” value was 1, the “MIC90 of antimycotic combined with C13” value was found to be 4096, the “Multiplicity factor (MF) with C15” value stood at 1 and the “MIC90 of antimycotic combined with C15” value came to 4096. Moreover, in data set [7], the MFC amounted to 4100 µg/mL (≈ 5.8 mM) and the MIC90 was found to be 4100 µg/mL (≈ 5.8 mM). Moreover, the FICI in data set [8] was at most 0.5. For the same compound, in the data set with C. glabrata ATCC 90030 [9], the MFC worked out at 4100 µg/mL (≈ 5.8 mM) and the MIC90 worked out at 4100 µg/mL (≈ 5.8 mM). In the data set with C. glabrata ATCC 90030 [10], the FICI is 1.004. The FICI in the data set with C. glabrata 2853 [11] is listed as 1.004.

For the compound `CC(=O)N1CCN(c2ccc(OCC3COC(Cn4ccnc4)(c4ccc(Cl)cc4Cl)O3)cc2)CC1` (centres unmarked) [Ketoconazole], the FICI with C. glabrata 2586 [1] was 1.25. Also, in the data set on C. glabrata ATCC 90030 [2], the “Multiplicity factor (MF) with C9” value was 16 (16), the “MIC90 of antimycotic combined with C9” value was 16 (16), the “Multiplicity factor (MF) with C11” value is reported as 16 (16) and the “MIC90 of antimycotic combined with C11” value is recorded as 16 (16). Further, in the data set with C. glabrata ATCC 90030 [2], the “Multiplicity factor (MF) with C13” value is given as 16 (16), the “MIC90 of antimycotic combined with C13” value is 16 (16), the “Multiplicity factor (MF) with C15” value was found to be 64 and the “MIC90 of antimycotic combined with C15” value is 4. For the same compound, in the data set with C. glabrata ATCC 90030 [2] (listed as ketoconazole), the “Multiplicity factor (MF) with C9” value was found to be 16, the “Multiplicity factor (MF) with C11” value is reported as 16 and the “Multiplicity factor (MF) with C13” value is 16. In addition, in the data set on C. glabrata 2586 [4], the “Multiplicity factor (MF) with C9” value came out at 8, the “MIC90 of antimycotic combined with C9” value was determined as 64, the “Multiplicity factor (MF) with C11” value is given as 16 and the “MIC90 of antimycotic combined with C11” value stood at 32. In addition, in the data set on C. glabrata 2586 [4], the “MIC90 of antimycotic combined with C13” value is recorded as 16, the “Multiplicity factor (MF) with C15” value was 64 and the “MIC90 of antimycotic combined with C15” value amounted to 8. Also, in data set [5], the MFC is 1020 µg/mL (≈ 1.93 mM) and the MIC90 stood at 512 µg/mL (≈ 0.963 mM). In the data set on C. glabrata 2853 [6], the “Multiplicity factor (MF) with C9” value is reported as 1, the “MIC90 of antimycotic combined with C9” value is 4, the “Multiplicity factor (MF) with C11” value was 1 and the “MIC90 of antimycotic combined with C11” value is listed as 4. In the data set on C. glabrata 2853 [6], the “Multiplicity factor (MF) with C13” value was 2 (2), the “MIC90 of antimycotic combined with C13” value was 2 (2), the “Multiplicity factor (MF) with C15” value amounted to 4 and the “MIC90 of antimycotic combined with C15” value is recorded as 1. Besides, the “Multiplicity factor (MF) with C13” value with C. glabrata 2853 [6] (listed as ketoconazole) stood at 2. Moreover, in [7], the MFC is 1020 µg/mL (≈ 1.93 mM) and the MIC90 stood at 4 µg/mL (≈ 0.00753 mM). For the same compound, the FICI in [8] is recorded as at most 0.5. Further, in the data set with C. glabrata ATCC 90030 [9], the MFC amounted to 1020 µg/mL (≈ 1.93 mM) and the MIC90 is 256 µg/mL (≈ 0.482 mM). Further, the FICI in the data set with C. glabrata ATCC 90030 [10] amounted to 2. Also, in the data set with C. glabrata 2853 [11], the “Type of interaction with β-AE (by FICI)” value is on record as “additive” and the FICI worked out at 0.75.

As for `C[C@@H]1[C@H](O)[C@@H](C)/C=C/C=C/CC/C=C/C=C/C=C/C=C/C(O[C@H]2O[C@H](C)[C@@H](O)[C@H](N)[C@@H]2O)CC2O[C@](O)(CC(O)C(O)CCC(O)CC(O)CC(O)CC(=O)O[C@H]1C)CC(O)C2C(=O)O` (some centres unmarked) [nystatin], the entries for the “Fold reduction of MIC” value in data set [12] (subinhibitory concentrations of β-AE crystalline) and in data set [12] (subinhibitory concentrations of β-AE sodium) were 2–16 fold and 2–4 fold, respectively.

As for “C12–C18 alkyl amido propyl dimethylamine betaine [AAPDB]”, in the data set with C. albicans, the Antimicrobial activity entry is listed as “active”.

For the compound N-hexadecylamidepropylbetaine, the Krafft point in data set [13] is 16 °C.
